Source: ChEMBL document CHEMBL1201862, “PubChem BioAssay data set” (2004)
Activity calls are given as the source filed them. Rule as the data show it, for most assays here: active = IC50 of 10 µM or less and inactive = more.

How the values were obtained:
Assay type in all cases: functional
CHO-K1 = assay: (§1) Counterscreen for antagonists of the orexin 1 receptor (OX1R; HCRTR1): Homogeneous time resolved fluorescence (HTRF)-based cell-based dose response assay to identify antagonists of the parental CHO-K1 cell line. [Related pubchem assays (depositor defined):AID434989, AID435008, AID463079, AID485270, AID492963, AID492964, AID492965, AID493232, AID504699, AID504701]; details: Cricetulus griseus
[1] = as §1, with “Fluorescence-based” for “Homogeneous time resolved fluorescence (HTRF)-based”, “cell-based high throughput” for “cell-based”, “CHO” for “CHO-K1”
[2] = molecular target: T1, Orexin/Hypocretin receptor type 1 (Homo sapiens, UniProt O43613); assay: Homogeneous Time Resolved Fluorescence (HTRF)-based cell-based high throughput dose response assay for antagonists of the orexin 1 receptor (OX1R; HCRTR1). [Related pubchem assays (depositor defined):AID434989, AID435008, AID463079, AID485270, AID492963, AID492964, AID492965, AID493232, AID504717, AID504718]
T1 sequence (O43613 whole entry): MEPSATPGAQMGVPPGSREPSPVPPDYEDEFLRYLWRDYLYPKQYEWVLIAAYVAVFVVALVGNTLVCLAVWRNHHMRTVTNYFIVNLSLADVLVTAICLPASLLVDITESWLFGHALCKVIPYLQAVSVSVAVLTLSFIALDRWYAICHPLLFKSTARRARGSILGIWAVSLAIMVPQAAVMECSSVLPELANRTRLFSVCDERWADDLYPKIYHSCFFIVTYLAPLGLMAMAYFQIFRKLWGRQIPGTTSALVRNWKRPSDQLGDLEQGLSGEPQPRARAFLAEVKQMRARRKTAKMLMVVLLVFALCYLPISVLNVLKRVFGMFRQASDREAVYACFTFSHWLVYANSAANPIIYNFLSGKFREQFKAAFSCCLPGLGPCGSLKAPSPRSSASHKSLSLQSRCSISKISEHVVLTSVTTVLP

[3] = molecular target: T1, Orexin/Hypocretin receptor type 1; assay: Fluorescence-based cell-based high throughput dose response assay for antagonists of the orexin 1 receptor (OX1R; HCRTR1). [Related pubchem assays (depositor defined):AID434989, AID435008, AID463079, AID485270, AID492963, AID492964, AID492965, AID493232, AID504717, AID504718]
Orexin receptor type 2 [4] = molecular target: T2, Orexin receptor type 2 (Homo sapiens, UniProt O43614); assay: Counterscreen assay for antagonists of the orexin 1 receptor (OX1R; HCRTR1): Fluorescence-based cell-based dose response assay for antagonists of the orexin 2 receptor (OX2R; HCRTR2), run by assay provider.
T2 sequence (O43614 whole entry): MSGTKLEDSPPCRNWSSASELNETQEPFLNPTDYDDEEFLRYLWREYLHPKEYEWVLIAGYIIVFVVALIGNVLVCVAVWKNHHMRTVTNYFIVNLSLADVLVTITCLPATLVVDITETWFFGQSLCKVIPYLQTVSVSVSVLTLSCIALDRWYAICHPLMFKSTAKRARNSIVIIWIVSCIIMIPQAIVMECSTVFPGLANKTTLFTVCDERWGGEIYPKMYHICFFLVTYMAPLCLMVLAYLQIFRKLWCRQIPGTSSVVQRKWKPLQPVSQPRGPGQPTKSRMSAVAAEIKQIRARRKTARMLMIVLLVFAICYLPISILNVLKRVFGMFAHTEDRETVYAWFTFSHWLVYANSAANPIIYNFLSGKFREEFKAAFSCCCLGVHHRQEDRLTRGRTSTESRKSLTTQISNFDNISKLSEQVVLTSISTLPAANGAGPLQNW

Orexin receptor type 2 [5] = molecular target: T2, Orexin receptor type 2; assay: Counterscreen assay for antagonists of the orexin 1 receptor (OX1R; HCRTR1): Homogeneous Time Resolved Fluorescence (HTRF)-based cell-based dose response assay for antagonists of the orexin 2 receptor (OX2R; HCRTR2), run by assay provider.
[6] = molecular target: T3, Apoptotic protease-activating factor 1 (Homo sapiens, UniProt O14727); assay: SAR analysis of small molecule Activators of Apaf-1 in a Fluorescent assay.; details: read-out: EC50_Mean;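 also: caspase-3 cleavage of fluorogenic Rh110 DEVD substrate downstream of apoptosome activation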
T3 sequence (O14727 whole entry): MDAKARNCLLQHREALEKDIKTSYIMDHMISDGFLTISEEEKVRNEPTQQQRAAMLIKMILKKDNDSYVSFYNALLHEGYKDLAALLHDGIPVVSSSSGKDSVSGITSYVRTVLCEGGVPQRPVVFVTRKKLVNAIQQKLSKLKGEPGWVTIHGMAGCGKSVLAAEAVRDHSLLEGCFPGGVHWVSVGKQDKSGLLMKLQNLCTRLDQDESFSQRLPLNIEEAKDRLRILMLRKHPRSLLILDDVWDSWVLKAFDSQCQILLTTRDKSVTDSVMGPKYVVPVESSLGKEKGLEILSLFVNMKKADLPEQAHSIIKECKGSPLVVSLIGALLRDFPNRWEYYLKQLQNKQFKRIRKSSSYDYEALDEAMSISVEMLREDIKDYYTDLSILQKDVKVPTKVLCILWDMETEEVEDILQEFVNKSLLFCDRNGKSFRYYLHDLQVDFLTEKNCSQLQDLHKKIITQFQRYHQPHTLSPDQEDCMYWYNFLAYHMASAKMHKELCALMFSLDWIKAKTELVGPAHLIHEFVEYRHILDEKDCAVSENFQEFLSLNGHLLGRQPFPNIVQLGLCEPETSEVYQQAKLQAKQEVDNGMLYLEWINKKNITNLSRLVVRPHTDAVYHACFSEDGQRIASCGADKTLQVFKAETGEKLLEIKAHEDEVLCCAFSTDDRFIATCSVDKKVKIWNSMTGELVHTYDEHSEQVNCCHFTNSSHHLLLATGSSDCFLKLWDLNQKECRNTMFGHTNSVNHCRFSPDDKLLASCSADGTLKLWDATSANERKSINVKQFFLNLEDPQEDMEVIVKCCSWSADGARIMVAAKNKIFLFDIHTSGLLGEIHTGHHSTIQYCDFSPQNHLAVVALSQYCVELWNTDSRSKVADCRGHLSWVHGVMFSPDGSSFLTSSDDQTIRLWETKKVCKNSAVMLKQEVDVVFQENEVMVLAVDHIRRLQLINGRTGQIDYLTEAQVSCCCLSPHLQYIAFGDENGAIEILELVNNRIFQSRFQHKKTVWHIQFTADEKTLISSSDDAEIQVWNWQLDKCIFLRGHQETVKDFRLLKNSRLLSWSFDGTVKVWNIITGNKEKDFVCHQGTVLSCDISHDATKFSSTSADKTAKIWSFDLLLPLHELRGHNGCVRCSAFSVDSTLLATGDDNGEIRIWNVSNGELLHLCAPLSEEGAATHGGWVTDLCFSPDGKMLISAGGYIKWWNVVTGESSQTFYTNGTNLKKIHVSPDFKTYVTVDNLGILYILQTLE

Interleukin-8 [7] = molecular target: T4, Interleukin-8 (Homo sapiens, UniProt P10145); assay: Dose Response confirmation of uHTS small molecule hits for cystic fibrosis induced NFkb Inhibitors in a TNFa-induced IL8 counterscreen.; details: read-out: IC50_Mean
T4 sequence (P10145 whole entry): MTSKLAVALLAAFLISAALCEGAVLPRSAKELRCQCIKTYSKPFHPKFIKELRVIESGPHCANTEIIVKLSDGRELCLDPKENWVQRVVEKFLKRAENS

Interleukin-8 [8] = molecular target: T4, Interleukin-8; assay: Dose Response confirmation of uHTS small molecule hits for cystic fibrosis induced NFkb Inhibitors in a PAF-induced IL8 counterscreen.; details: read-out: IC50_Mean
Melanocortin receptor 4 = Melanocortin receptor 4 (Homo sapiens, UniProt P32245); assay: MC4R antagonist potency on cAMP, dose response, cell-based, TR-FRET, biased antagonists (AID 602298);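 also: antagonist potency against agonist-stimulated cAMP production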
Chain of Melanocortin receptor 4 (P32245 whole entry): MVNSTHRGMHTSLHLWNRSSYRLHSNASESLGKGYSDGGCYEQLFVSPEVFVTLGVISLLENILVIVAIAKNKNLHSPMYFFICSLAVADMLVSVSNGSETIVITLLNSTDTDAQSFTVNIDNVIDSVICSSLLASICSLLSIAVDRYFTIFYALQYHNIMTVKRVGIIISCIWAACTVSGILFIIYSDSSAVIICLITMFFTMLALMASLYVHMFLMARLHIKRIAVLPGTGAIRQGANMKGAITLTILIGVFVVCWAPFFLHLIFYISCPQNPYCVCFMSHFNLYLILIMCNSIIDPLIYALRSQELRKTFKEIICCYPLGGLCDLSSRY

[9] = nonselective inhibitors of cellular cAMP signaling, dose response, counter-screen for MC4R biased antagonist project, cell-based, TR-FRET cAMP detection (AID 602305);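 also: U2OS cells stimulated with forskolin near its EC80 as the cAMP inducer; potency is for inhibition of forskolin-stimulated cAMP signaling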

Compound: COc1ccc([C@@H]2CC=C(C(=O)O)[C@H](c3cccc(Cl)c3)N2S(=O)(=O)c2ccccc2C)cc1
- IC50 (CHO-K1): > 66.2 µM (inactive)
- IC50 [1]: > 49.7 µM (inactive)
- IC50 [2]: 1.09 µM (active)
- IC50 [3]: 14.6 µM (inactive)
- IC50 (Orexin receptor type 2 [4]): 17.1 µM (inactive)
- IC50 (Orexin receptor type 2 [5]): 3.32 µM (active)

Compound: CC1(C)CC2CC(C)(CN2C(=O)C2CC(c3ccc(F)cc3)=NO2)C1 (stereo unspecified)
- EC50 [6]: > 100 µM (inactive)

Compound: c1ccc2c(-c3ccc4nncn4c3)cncc2c1
- IC50 (Interleukin-8 [7]): > 79 µM (inactive)
- IC50 (Interleukin-8 [8]): 12.4 µM (inactive)

Compound: O=S(=O)(c1ccc(Br)c2nsnc12)N1CCOCC1
- IC50 (Melanocortin receptor 4): > 64.6 µM (inactive)
- IC50 [9]: > 64.6 µM (inactive)
